# Experimental data from patent US20120184590A1, “FORMULATIONS OF INDOLE-3-CARBINOL DERIVED ANTITUMOR AGENTS WITH INCREASED ORAL BIOAVAILABILITY” (UNIVERSITY OF KANSAS, priority 2009, published 2012).
# Several values for one entry are separate records, joined by “and”; a condition that tells them apart may be missing. Equal entries are not always repeated. Where two headings read alike, the source gives them in different places. Marks after values point to notes of the source that are not given here.
# Assay: Pharmacokinetics of SR13668 in dogs after i.v. and oral gavage dosing
# Assay type: in vivo, beagle dogs
# Details: for Fabs F/(1-ER): blood; for bioavailability: beagle (dogs), across all oral groups, dogs and monkeys; for Vd/F: read-out: VZ/F
# Source text: Four non-naïve male beagle dogs (approximately 3 years of age; Ridglan Farms Inc. Mt. Horeb, Wis.) and four non-naïve male cynomolgus monkeys [cynos (macaca fasicularis); approximately 7 to 8 years of age; Charles River Laboratories, Inc., Houston, Tex.] were used in this study. Prior to experimental initiation for the present study, the attending veterinarian certified that the animals were healthy and free from disease and parasites.
# For both species, each animal was part of each experimental group, with a 7-day interval between treatments to allow for washout of the dosing formulation and its effects. Dosing formulations of SR13668 were administered by oral gavage (intragastric) or intravenous (i.v.) injection as a single dose or once daily for seven consecutive days. Oral to doses were administered at a dosing volume of 5 mL/kg of body weight, while intravenous doses were administered at a dosing volume of 0.5 mL/kg of body weight. Dogs were dosed with 93.6 mg/m^2 SR13668 intravenously in DMSO:PEG300 15:85 (v/v) or orally in Solutol® vehicle (two groups, fed and after an overnight fast). Monkeys were dosed with 84.2 mg/m^2 SR13668 intravenously in DMSO:PEG300 15:85 (v/v) or orally (336.7 mg/m^2 SR13668 for the oral high dose group) in PEG400:Labrasol® 1:1 (v/v) or Solutol® vehicles. Vehicle control groups were used to assess the tolerability of the vehicle and for clinical pathology evaluations.
# Blood samples were collected from each animal at 10 time points (0, 0.25, 0.5, 1, 2, 4, 6, 8, 12 and 24 hours post-dose) during the first and last 24-hour segment of each dosing regimen. For single intravenous dose experiments, samples were collected during the 24-hour post-dose period only. Samples were transferred to Vacutainer tubes containing ethylenediaminetetraacetic acid (EDTA; Fisher Scientific, Pittsburgh, Pa.). The tubes were inverted several times to mix and then placed on ice until storage or centrifugation for plasma preparation. After centrifugation, the plasma was transferred into storage tubes (0.5 mL), which were placed on dry ice and then stored frozen (approximately −70° C.).
# Levels of SR13668 in plasma and blood were measured using a tandem mass to spectrometer (API 3000; Applied Biosystems/MDS Sciex, Foster City, Calif.) equipped with a high performance liquid chromatograph (Agilent 1200; Agilent Technologies, Wilmington, Del.). For SR13668 determination, a 100 μL blood or plasma aliquot was mixed with 1 mL of acetonitrile (ACN; Sigma-Aldrich, St. Louis, Mo.). After vortex-mixing for one minute, the sample was centrifuged at 4° C. and 7000 RPM for 10 minutes to remove precipitated proteins, and the supernatant was transferred to a clean tube and dried under nitrogen flow at room temperature (approximately 25° C.). After the evaporation was completed, the residue was reconstituted in 500 μL of ACN/water (v/v 70:30), and vortex-mixed and centrifuged again. An aliquot of the resulting supernatant was transferred to an autosampler tube for instrumental analysis.
# A freshly prepared SR13668 standard curve was analyzed along with samples on each day of analysis. The chromatographic column was a Luna 3μ C18(2) 110 Å 30×2.0 mm (Phenomenex, Torrance, Calif.). The column temperature was maintained at 25° C., and a flow rate of 0.30 mL/min was used. The mobile phase consisted of MPA: formic acid in water (0.05%, v/v) and MPB: formic acid in ACN (0.05%, v/v). The mobile phase gradient was as follows: after injection, initial conditions with MPA at 40% were held for 0.01 min, decreased to 5% and held constant for 3 min, returning to initial conditions for another 3 min of re-equilibration time. Retention time of SR13668 was approximately 2.4 min. Total run time was 6 min. A turbo ion spray interface was used as the ion source operating in negative ion mode. Acquisition was performed in multiple reaction monitoring mode using ions 429.15 (Q1) and 414.12 (Q3) Dalton. […]
# [1] = dogs, whole blood, 93.6 mg/m^2 (4.68 mg/kg) iv single dose, DMSO:PEG300 15:85 v/v, fed
# [2] = male, beagle, dog, plasma, iv, 4.68 mg/kg, dogs, plasma, 93.6 mg/m^2 (4.68 mg/kg) i.v. single dose, DMSO:PEG300 15:85 v/v, fed
# [3] = male, beagle, dog, plasma, po, 4.68 mg/kg, dogs, 93.6 mg/m^2 (4.68 mg/kg) oral gavage, Solutol, seventh daily dose, fasted
# [4] = male, beagle, dog, plasma, po, 4.68 mg/kg, dogs, 93.6 mg/m^2 (4.68 mg/kg) oral gavage, Solutol, seventh daily dose, fed
# [5] = male, beagle, dog, whole blood, iv, 4.68 mg/kg, dogs, whole blood, 93.6 mg/m^2 (4.68 mg/kg) iv single dose, DMSO:PEG300 15:85 v/v, fed
# [6] = male, beagle, dog, whole blood, po, 4.68 mg/kg, dogs, 93.6 mg/m^2 (4.68 mg/kg) oral gavage, Solutol, seventh daily dose, fasted
# [7] = male, beagle, dog, whole blood, po, 4.68 mg/kg, dogs, 93.6 mg/m^2 (4.68 mg/kg) oral gavage, Solutol, seventh daily dose, fed
structure (smiles),measurement,setting,value
"CCOC(=O)c1ccc2[nH]c3c(OC)c4[nH]c5ccc(C(=O)OCC)cc5c4cc3c2c1 [SR13668, 2,10-dicarbethoxy-6-methoxy-5,7-dihydro-indolo-(2,3-b)carbazole]",CL,"dogs, blood clearance, 93.6 mg/m^2 (4.68 mg/kg) oral gavage, Solutol, fasted",30.0 mL/min/kg
same,CL,"dogs, blood clearance, 93.6 mg/m^2 (4.68 mg/kg) oral gavage, Solutol, fed",25.7 mL/min/kg
same,Fabs F/(1-ER),"dogs, 93.6 mg/m^2 (4.68 mg/kg) oral gavage, Solutol, fasted",16.5%
same,Fabs F/(1-ER),"dogs, 93.6 mg/m^2 (4.68 mg/kg) oral gavage, Solutol, fed",20.0%
same,F0-∞,"dogs, plasma, 93.6 mg/m^2 (4.68 mg/kg) i.v. single dose, DMSO:PEG300 15:85 v/v, fed",100%
same,F0-∞,"dogs, plasma, 93.6 mg/m^2 (4.68 mg/kg) oral gavage, Solutol, seventh daily dose, fasted",13.3 ± 4.0%
same,CL/F,[1],"0.244 ± 0.034^a,h L/hr/kg"
same,F0-∞,[1],100%
same,F0-∞,"dogs, whole blood, 93.6 mg/m^2 (4.68 mg/kg) oral gavage, Solutol, seventh daily dose, fasted",14.2 ± 4.5% and 14.2%
same,F0-∞,"dogs, whole blood, 93.6 mg/m^2 (4.68 mg/kg) oral gavage, Solutol, seventh daily dose, fed","17.2 ± 4.3^h,i % and 17.2%"
same,ER CLiv/Q,"dogs, iv blood clearance over hepatic blood flow 30.9 mL/min/kg",0.14
same,effect of fed or fasted condition on bioavailability,"dogs, oral gavage, Solutol",did not have an effect
same,bioavailability,"male, dog, plasma, read-out: plasma oral bioavailability, range",0.7 to 14.6%
same,bioavailability,"male, dog, whole blood, read-out: blood oral bioavailability, range",1.1 to 17.2%
same,AUC(0-inf),[2],8400 ± 1190 ng·h/mL
same,Cmax,[2],2360 ± 573 ng/mL
same,MRT,[2],6.3 ± 0.6 h
same,Tmax,[2],0.25 h
same,half-life,[2],5 ± 0.2 h
same,CL/F,"male, beagle, dog, plasma, po, 4.68 mg/kg, dogs, plasma, 93.6 mg/m^2 (4.68 mg/kg) oral gavage, Solutol, seventh daily dose, fasted, read-out: CL/F (converted)",76.3 mL/min/kg
same,Vd/F,"male, beagle, dog, plasma, po, 4.68 mg/kg, dogs, plasma, 93.6 mg/m^2 (4.68 mg/kg) oral gavage, Solutol, seventh daily dose, fasted",64 ± 24 L/kg
same,CL/F,"male, beagle, dog, plasma, po, 4.68 mg/kg, dogs, plasma, 93.6 mg/m^2 (4.68 mg/kg) oral gavage, Solutol, seventh daily dose, fed, read-out: CL/F (converted)",69.7 mL/min/kg
same,Vd/F,"male, beagle, dog, plasma, po, 4.68 mg/kg, dogs, plasma, 93.6 mg/m^2 (4.68 mg/kg) oral gavage, Solutol, seventh daily dose, fed",32.4 ± 9.6 L/kg
same,AUC(0-inf),[3],1100 ± 339 ng·h/mL
same,Cmax,[3],113 ± 58 ng/mL
same,MRT,[3],12.8 ± 4.2 h
same,Tmax,[3],2.8 ± 1.5 h
same,half-life,[3],9.7 ± 2.4 h
same,AUC(0-inf),[4],1240 ± 414 ng·h/mL
same,Cmax,[4],207 ± 48 ng/mL
same,MRT,[4],7.1 ± 1.1 h
same,Tmax,[4],1.8 ± 0.5 h
same,half-life,[4],5.6 ± 1.4 h
same,AUC(0-inf),[5],19500 ± 3160 ng·h/mL
same,Cmax,[5],5220 ± 742 ng/mL
same,MRT,[5],6.7 ± 0.6 h
same,Tmax,[5],0.25 h
same,half-life,[5],5 ± 0.1 h
same,CL/F,"male, beagle, dog, whole blood, po, 4.68 mg/kg, dogs, whole blood, 93.6 mg/m^2 (4.68 mg/kg) oral gavage, Solutol, seventh daily dose, fasted, read-out: CL/F (converted)",30 mL/min/kg
same,Vd/F,"male, beagle, dog, whole blood, po, 4.68 mg/kg, dogs, whole blood, 93.6 mg/m^2 (4.68 mg/kg) oral gavage, Solutol, seventh daily dose, fasted",18.6 ± 7.5 L/kg
same,CL/F,"male, beagle, dog, whole blood, po, 4.68 mg/kg, dogs, whole blood, 93.6 mg/m^2 (4.68 mg/kg) oral gavage, Solutol, seventh daily dose, fed, read-out: CL/F (converted)",25.7 mL/min/kg
same,Vd/F,"male, beagle, dog, whole blood, po, 4.68 mg/kg, dogs, whole blood, 93.6 mg/m^2 (4.68 mg/kg) oral gavage, Solutol, seventh daily dose, fed",12.8 ± 4.8 L/kg
same,AUC(0-inf),[6],2680 ± 577 ng·h/mL
same,Cmax,[6],277 ± 87 ng/mL
same,MRT,[6],10.9 ± 3.1 h
same,Tmax,[6],2.8 ± 1.5 h
same,half-life,[6],7 ± 1.8 h
same,AUC(0-inf),[7],3410 ± 1290 ng·h/mL
same,Cmax,[7],575 ± 152 ng/mL
same,MRT,[7],7.2 ± 0.9 h
same,Tmax,[7],1.8 ± 0.5 h
same,half-life,[7],5.9 ± 1.5 h
same,clearance,"male, beagle, dog, whole blood, dogs, blood clearance, 93.6 mg/m^2 (4.68 mg/kg) iv, DMSO:PEG300 15:85 v/v, fed",4.07 mL/min/kg
